Reference: patent publication US20230085307A1, “PYRIDAZINONE COMPOUND AND HERBICIDE” (NISSAN CHEMICAL CORPORATION, priority 2019, published 2023)

Columns and labels:
chickweed [1] = experiment: Test Example 5: herbicidal effect by foliage application, plastic box (Table 20, symbol P); type: in vivo, common chickweed (Stellaria media); conditions: foliage application, AAH 320 g/ha, three weeks after application
Method in brief: (§1)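 Sow seeds spot-wise in sterilized diluvial soil; cover with ~1.5 cm soil. Grow 14 days in greenhouse, 25° C. to 30° C. Spray foliage with emulsion diluted to predetermined amount. Rate effect after 3 weeks.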

redroot pigweed [2] = experiment: Test Example 4: herbicidal effect by soil treatment (Table 19, symbol N); type: in vivo, redroot pigweed (Amaranthus retroflexus); conditions: AAH 320 g/ha
Method in brief: (§2)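 Applied as a water-diluted emulsion, the compound was sprayed onto soil covering newly sown seeds. Evaluation came three weeks after application, in a greenhouse held at 25° C. to 30° C.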

persian speedwell [3] = experiment: Test Example 4: herbicidal effect by soil treatment (Table 19, symbol R); type: in vivo, Persian speedwell (Veronica persica); conditions: AAH 320 g/ha
Method in brief: as §2

barnyard grass [4] = experiment: Test Example 5: herbicidal effect by foliage application, plastic box (Table 20, symbol H); type: in vivo, barnyard grass (Echinochloa crus-galli); conditions: foliage application, AAH 320 g/ha, three weeks after application
Method in brief: as §1

blackgrass [5] = experiment: Test Example 4: herbicidal effect by soil treatment (Table 19, symbol J); type: in vivo, blackgrass (Alopecurus myosuroides); conditions: AAH 320 g/ha
Method in brief: as §2

southern crabgrass [6] = experiment: Test Example 5: herbicidal effect by foliage application, plastic box (Table 20, symbol F); type: in vivo, southern crabgrass (Digitaria ciliaris); conditions: foliage application, AAH 320 g/ha, three weeks after application
Method in brief: as §1

false cleavers = experiment: Test Example 4: herbicidal effect by soil treatment (Table 19, symbol Q); type: in vivo, false cleavers (Galium spurium); conditions: AAH 320 g/ha
Method in brief: as §2

velvetleaf [7] = experiment: Test Example 4: herbicidal effect by soil treatment (Table 19, symbol M); type: in vivo, velvetleaf (Abutilon theophrasti); conditions: AAH 320 g/ha
Method in brief: as §2

wild oat [8] = experiment: Test Example 5: herbicidal effect by foliage application, plastic box (Table 20, symbol I); type: in vivo, wild oat (Avena fatua); conditions: foliage application, AAH 320 g/ha, three weeks after application
Method in brief: as §1

wild oat [9] = experiment: Test Example 4: herbicidal effect by soil treatment (Table 19, symbol I); type: in vivo, wild oat (Avena fatua); conditions: AAH 320 g/ha
Method in brief: as §2

southern crabgrass [10] = experiment: Test Example 4: herbicidal effect by soil treatment (Table 19, symbol F); type: in vivo, southern crabgrass (Digitaria ciliaris); conditions: AAH 320 g/ha
Method in brief: as §2

Italian ryegrass [11] = experiment: Test Example 4: herbicidal effect by soil treatment (Table 19, symbol K); type: in vivo, Italian ryegrass (Lolium multiflorum); conditions: AAH 320 g/ha
Method in brief: as §2

lambsquarters [12] = experiment: Test Example 5: herbicidal effect by foliage application, plastic box (Table 20, symbol O); type: in vivo, lambsquarters (Chenopodium album); conditions: foliage application, AAH 320 g/ha, three weeks after application
Method in brief: as §1

lambsquarters [13] = experiment: Test Example 4: herbicidal effect by soil treatment (Table 19, symbol O); type: in vivo, lambsquarters (Chenopodium album); conditions: AAH 320 g/ha
Method in brief: as §2

barnyard grass [14] = experiment: Test Example 4: herbicidal effect by soil treatment (Table 19, symbol H); type: in vivo, barnyard grass (Echinochloa crus-galli); conditions: AAH 320 g/ha
Method in brief: as §2

green foxtail [15] = experiment: Test Example 4: herbicidal effect by soil treatment (Table 19, symbol G); type: in vivo, green foxtail (Setaria viridis); conditions: AAH 320 g/ha
Method in brief: as §2

barnyard grass [16] = experiment: Test Example 3: herbicidal effect by foliage application, Wagner pot (Table 18, symbol H); type: in vivo, barnyard grass (Echinochloa crus-galli); conditions: 320 g/ha
Method in brief: (§3)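 Plants were sown in alluvial soil held under 0.1–0.5 cm standing water and grown 14 days in a greenhouse at 25–30 °C. An emulsifiable formulation, water-diluted to the set dose, was then sprayed onto the foliage, and effects were scored three weeks later using previously defined criteria.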

windgrass = experiment: Test Example 5: herbicidal effect by foliage application, plastic box (Table 20, symbol L); type: in vivo, windgrass (Apera spica-venti); conditions: foliage application, AAH 320 g/ha, three weeks after application
Method in brief: as §1

blackgrass [17] = experiment: Test Example 5: herbicidal effect by foliage application, plastic box (Table 20, symbol J); type: in vivo, blackgrass (Alopecurus myosuroides); conditions: foliage application, AAH 320 g/ha, three weeks after application
Method in brief: as §1

redroot pigweed [18] = experiment: Test Example 5: herbicidal effect by foliage application, plastic box (Table 20, symbol N); type: in vivo, redroot pigweed (Amaranthus retroflexus); conditions: foliage application, AAH 320 g/ha, three weeks after application
Method in brief: as §1

velvetleaf [19] = experiment: Test Example 5: herbicidal effect by foliage application, plastic box (Table 20, symbol M); type: in vivo, velvetleaf (Abutilon theophrasti); conditions: foliage application, AAH 320 g/ha, three weeks after application
Method in brief: as §1

Chinese sprangletop = experiment: Test Example 3: herbicidal effect by foliage application, Wagner pot (Table 18, symbol D); type: in vivo, chinese sprangletop (Leptochloa chinensis); conditions: 320 g/ha
Method in brief: as §3

Italian ryegrass [20] = experiment: Test Example 5: herbicidal effect by foliage application, plastic box (Table 20, symbol K); type: in vivo, Italian ryegrass (Lolium multiflorum); conditions: foliage application, AAH 320 g/ha, three weeks after application
Method in brief: as §1

rice flat sedge = experiment: Test Example 3: herbicidal effect by foliage application, Wagner pot (Table 18, symbol E); type: in vivo, rice flat sedge (Cyperus iria); conditions: 320 g/ha
Method in brief: as §3

green foxtail [21] = experiment: Test Example 5: herbicidal effect by foliage application, plastic box (Table 20, symbol G); type: in vivo, green foxtail (Setaria viridis); conditions: foliage application, AAH 320 g/ha, three weeks after application
Method in brief: as §1

persian speedwell [22] = experiment: Test Example 5: herbicidal effect by foliage application, plastic box (Table 20, symbol R); type: in vivo, Persian speedwell (Veronica persica); conditions: foliage application, AAH 320 g/ha, three weeks after application
Method in brief: as §1

chickweed [23] = experiment: Test Example 4: herbicidal effect by soil treatment (Table 19, symbol P); type: in vivo, common chickweed (Stellaria media); conditions: AAH 320 g/ha
Method in brief: as §2

COc1nn(C)c(=O)c(-c2c(-c3ccc(F)c(C)c3)sc3ccccc23)c1O [1-174]
P: chickweed, herbicidal effect (chickweed [1]): 5 (Herbicidal rate of 90% or more (almost completely withered))
N: redroot pigweed, herbicidal effect rating (redroot pigweed [2]): 0 (Herbicidal rate of 5% or less (almost no effect))
R: persian speedwell, herbicidal effect rating (persian speedwell [3]): 4 (Herbicidal rate of 70% or more and less than 90%)
H: barnyard grass, herbicidal effect (barnyard grass [4]): 0 (Herbicidal rate of 5% or less (almost no effect))
J: blackgrass, herbicidal effect rating (blackgrass [5]): 0 (Herbicidal rate of 5% or less (almost no effect))
F: southern crabgrass, herbicidal effect (southern crabgrass [6]): 0 (Herbicidal rate of 5% or less (almost no effect))
Q: false cleavers, herbicidal effect rating (false cleavers): 0 (Herbicidal rate of 5% or less (almost no effect))
M: velvetleaf, herbicidal effect rating (velvetleaf [7]): 0 (Herbicidal rate of 5% or less (almost no effect))
I: wild oat, herbicidal effect (wild oat [8]): 0 (Herbicidal rate of 5% or less (almost no effect))
I: wild oat, herbicidal effect rating (wild oat [9]): 0 (Herbicidal rate of 5% or less (almost no effect))
F: southern crabgrass, herbicidal effect rating (southern crabgrass [10]): 0 (Herbicidal rate of 5% or less (almost no effect))
K: Italian ryegrass, herbicidal effect rating (Italian ryegrass [11]): 0 (Herbicidal rate of 5% or less (almost no effect))
O: lambsquarters, herbicidal effect (lambsquarters [12]): 2 (Herbicidal rate of 20% or more and less than 40%)
O: lambsquarters, herbicidal effect rating (lambsquarters [13]): 0 (Herbicidal rate of 5% or less (almost no effect))
H: barnyard grass, herbicidal effect rating (barnyard grass [14]): 0 (Herbicidal rate of 5% or less (almost no effect))
G: green foxtail, herbicidal effect rating (green foxtail [15]): 0 (Herbicidal rate of 5% or less (almost no effect))
herbicidal effect on H (barnyard grass), rating 0-5 (barnyard grass [16]): 1 (Herbicidal rate of 5% or more and less than 20%)
L: windgrass, herbicidal effect (windgrass): 0 (Herbicidal rate of 5% or less (almost no effect))
J: blackgrass, herbicidal effect (blackgrass [17]): 0 (Herbicidal rate of 5% or less (almost no effect))
N: redroot pigweed, herbicidal effect (redroot pigweed [18]): 0 (Herbicidal rate of 5% or less (almost no effect))
M: velvetleaf, herbicidal effect (velvetleaf [19]): 4 (Herbicidal rate of 70% or more and less than 90%)
herbicidal effect on D (Chinese sprangletop), rating 0-5 (Chinese sprangletop): 0 (Herbicidal rate of 5% or less (almost no effect))
K: Italian ryegrass, herbicidal effect (Italian ryegrass [20]): 1 (Herbicidal rate of 5% or more and less than 20%)
herbicidal effect on E (rice flat sedge), rating 0-5 (rice flat sedge): 3 (Herbicidal rate of 40% or more and less than 70%)
G: green foxtail, herbicidal effect (green foxtail [21]): 2 (Herbicidal rate of 20% or more and less than 40%)
R: persian speedwell, herbicidal effect (persian speedwell [22]): 4 (Herbicidal rate of 70% or more and less than 90%)
P: chickweed, herbicidal effect rating (chickweed [23]): 5 (Herbicidal rate of 90% or more (almost completely withered))
